Counter-ions that a name gives are not always drawn.
Key:
COX-2 = biological target: T1, COX-2 (Rattus norvegicus, UniProt P35355); test: Colonic mucosal COX-2 activity after dietary treatment; assay type: in vivo, male F344 rats; settings: 100 ppm in diet; AOM-treated rats, colonic mucosa; Mean ± SEM
T1 sequence (P35355 18-604): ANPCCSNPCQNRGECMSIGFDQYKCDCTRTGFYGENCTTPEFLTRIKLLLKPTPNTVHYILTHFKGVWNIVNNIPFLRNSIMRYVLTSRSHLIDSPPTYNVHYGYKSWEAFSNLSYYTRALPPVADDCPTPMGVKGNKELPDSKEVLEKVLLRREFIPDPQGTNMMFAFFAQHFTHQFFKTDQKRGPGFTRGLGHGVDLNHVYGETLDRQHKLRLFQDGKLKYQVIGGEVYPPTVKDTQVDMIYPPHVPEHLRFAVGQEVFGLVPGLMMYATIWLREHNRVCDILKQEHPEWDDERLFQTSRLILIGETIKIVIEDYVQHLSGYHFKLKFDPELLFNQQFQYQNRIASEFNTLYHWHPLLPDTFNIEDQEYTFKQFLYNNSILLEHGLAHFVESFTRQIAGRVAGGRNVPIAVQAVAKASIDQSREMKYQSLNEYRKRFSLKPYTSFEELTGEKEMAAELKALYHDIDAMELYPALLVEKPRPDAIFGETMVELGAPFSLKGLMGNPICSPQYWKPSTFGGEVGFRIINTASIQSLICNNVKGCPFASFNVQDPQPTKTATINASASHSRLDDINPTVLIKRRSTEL
Description: (§1) For determining COX-2 activity, proteins were preincubated with 50 μM of aspirin to block the activity of COX-1. After incubation at 37° C. for 15 min, the reaction was terminated by adding 40 μl of 0.2 M HCl. The COX-mediated metabolites of arachidonic acid were extracted with ethyl acetate (3×0.5 ml). The combined extracts were evaporated to dryness under N2, redissolved in chloroform, and subjected to thin layer chromatography on precoated TLC plastic plates (silica G 60, 20×20 cm, layer thickness 150 μm). […] The metabolites of ^14C-AA corresponding to PGE2, PGF2α, PGD2, 6-Keto PGF1α, and TXB2 were detected by their comigration (Rf-values) with authentic standards. The area of each metabolite was determined in a Bioscan System 200 image scanning counter (Bioscan Inc., Washington, D.C.) equipped with β-detector.

COX-1 = biological target: T2, COX-1 (Rattus norvegicus, UniProt Q63921); test: Colonic mucosal COX-1 activity after dietary treatment; assay type: in vivo, male F344 rats; settings: 100 ppm in diet; AOM-treated rats, colonic mucosa; Mean ± SEM
T2 sequence (Q63921 27-602): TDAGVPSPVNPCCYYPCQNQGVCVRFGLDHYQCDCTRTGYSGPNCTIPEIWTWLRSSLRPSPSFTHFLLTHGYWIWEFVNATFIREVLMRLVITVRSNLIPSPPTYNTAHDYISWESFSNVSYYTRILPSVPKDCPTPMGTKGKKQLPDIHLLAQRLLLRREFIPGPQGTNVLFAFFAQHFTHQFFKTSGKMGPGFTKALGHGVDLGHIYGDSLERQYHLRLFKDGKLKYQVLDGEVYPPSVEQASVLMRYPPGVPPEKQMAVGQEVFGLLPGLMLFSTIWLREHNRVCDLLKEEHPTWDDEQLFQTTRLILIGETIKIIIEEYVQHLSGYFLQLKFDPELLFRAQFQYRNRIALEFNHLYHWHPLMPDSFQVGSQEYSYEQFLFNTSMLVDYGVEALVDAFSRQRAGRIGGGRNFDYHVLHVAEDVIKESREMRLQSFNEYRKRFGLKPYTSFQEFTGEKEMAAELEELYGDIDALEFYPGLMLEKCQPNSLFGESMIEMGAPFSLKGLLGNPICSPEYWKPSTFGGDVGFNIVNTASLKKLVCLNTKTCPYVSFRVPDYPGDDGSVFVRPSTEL
Description: as §1

## CC(=N)NCCCC[C@H](N)C(=O)Nc1nnn[nH]1 [compound XI, 2S-amino-6-[(1-iminoethyl)amino]-N-(1H-tetrazol-5-yl)hexanamide, hydrate, dihydrochloride]
COX-2
  COX-Activity, COX-2: 1.8 ± 0.3 pmoles [^14C]-AA metabolized/m
COX-1
  COX-Activity, COX-1: 11.3 ± 1.4 pmoles [^14C]-AA metabolized/m
